Columns and labels:
Assay in all cases: relative viability (nuclei count vs DMSO), 5 days (fraction); higher = more cells survive
[1] = compound: C1CC1C(=O)NC2=NNC3=C2C=CC(=C3)C4=CC(=CC=C4)C(=O)NC5CC5 [XMD13-2] + CC(=O)Nc1cccc(-n2c(=O)n(C3CC3)c(=O)c3c(Nc4ccc(I)cc4F)n(C)c(=O)c(C)c32)c1 [Trametinib] (partner 0.02 µM)
Method in brief: (§1)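 Lung cancer cell lines in 1536-well plates got either a single drug or a fixed anchor-drug dose together with five library-drug doses (not always all listed) in √10 steps, by pin tool, on the day after seeding. Nuclei were counted after 5 days, and relative viability is the treated-to-vehicle ratio of nuclei counts. Values are medians of duplicate plates.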

[2] = compound: C1CC1C(=O)NC2=NNC3=C2C=CC(=C3)C4=CC(=CC=C4)C(=O)NC5CC5 [XMD13-2] + N=C(N)NC(=N)NCCc1ccccc1 [Phenformin] (partner 250 µM)
Method in brief: as §1

[3] = compound: C1CC1C(=O)NC2=NNC3=C2C=CC(=C3)C4=CC(=CC=C4)C(=O)NC5CC5 [XMD13-2] + CC(=O)c1c(C)c2cnc(Nc3ccc(N4CCNCC4)cn3)nc2n(C2CCCC2)c1=O [Palbociclib] (partner 0.5 µM)
Method in brief: as §1

[4] = compound: C1CC1C(=O)NC2=NNC3=C2C=CC(=C3)C4=CC(=CC=C4)C(=O)NC5CC5 [XMD13-2] + Nc1nc2[nH]cc(CCc3ccc(C(=O)N[C@@H](CCC(=O)O)C(=O)O)cc3)c2c(=O)[nH]1 [Pemetrexed] (partner 0.2 µM)
Method in brief: as §1

Cell Line	relative viability ([1]; first compound 0.05 µM)	relative viability ([1]; first compound 0.1581 µM)	relative viability ([1]; first compound 0.5 µM)	relative viability ([1]; first compound 1.581 µM)	relative viability ([1]; first compound 5 µM)	relative viability ([2]; first compound 0.05 µM)	relative viability ([2]; first compound 0.1581 µM)	relative viability ([2]; first compound 0.5 µM)	relative viability ([2]; first compound 1.581 µM)	relative viability ([2]; first compound 5 µM)	relative viability ([3]; first compound 0.05 µM)	relative viability ([3]; first compound 0.1581 µM)	relative viability ([3]; first compound 0.5 µM)	relative viability ([3]; first compound 1.581 µM)	relative viability ([3]; first compound 5 µM)	relative viability ([4]; first compound 0.05 µM)	relative viability ([4]; first compound 0.1581 µM)	relative viability ([4]; first compound 0.5 µM)	relative viability ([4]; first compound 1.581 µM)	relative viability ([4]; first compound 5 µM)
NCI-H522	0.852	0.688	0.82	0.711	0.759	0.732	0.656	0.708	0.616	0.602	0.931	0.873	1.22	0.875	0.885	1.24	1.05	1.1	1.08	0.886
NCI-H441	0.569	0.452	0.459	0.535	0.538	1.06	0.801	0.883	0.884	0.871	0.239	0.224	0.219	0.225	0.28	0.298	0.24	0.233	0.234	0.263
NCI-H2126	0.571	0.55	0.588	0.561	0.531	0.531	0.474	0.522	0.522	0.553	0.385	0.398	0.309	0.336	0.323	0.748	0.656	0.634	0.704	0.647
RERF-LC-KJ	0.984	0.83	0.889	0.8	0.782	0.5	0.435	0.446	0.407	0.396	1.06	1.11	1.1	1.04	1.03	0.478	0.425	0.476	0.385	0.463
NCI-H1666	0.745	0.937	0.89	0.799	0.987	0.544	0.6	0.595	0.546	0.593	0.629	0.685	0.67	0.665	0.675	0.863	0.919	0.875	0.884	0.946
PC-14	0.892	0.713	0.788	0.723	0.983	0.635	0.794	0.556	0.478	0.838	0.597	0.526	0.517	0.586	0.568	0.14	0.131	0.118	0.148	0.13
NCI-H1915	0.392	0.289	0.318	0.284	0.35	0.381	0.362	0.367	0.371	0.379	0.56	0.509	0.529	0.481	0.509	0.504	0.509	0.544	0.504	0.513
NCI-H661	0.538	0.614	0.665	0.615	0.409	0.261	0.292	0.274	0.267	0.271	0.378	0.395	0.392	0.406	0.408	0.936	0.927	0.873	0.916	0.838
SK-MES-1	0.576	0.532	0.508	0.508	0.58	0.699	0.657	0.696	0.598	0.644	0.308	0.312	0.304	0.329	0.326	1.01	0.894	0.911	0.909	0.864
NCI-H1944	0.486	0.393	0.429	0.458	0.411	0.219	0.224	0.225	0.23	0.203	0.323	0.312	0.325	0.351	0.322	0.74	0.573	0.622	0.875	0.642
HCC-78	0.842	0.71	0.834	0.833	0.792	0.831	0.755	0.661	0.671	0.684	0.45	0.459	0.448	0.438	0.483	0.921	0.918	0.883	0.962	0.964
PC-3 [JPC-3]	0.681	0.721	0.737		0.778	0.5	0.49	0.48	0.523	0.54	0.558	0.508	0.571		0.532	1.23	1.04	1.14		1.12
LCLC-103H	0.66	0.677	0.742	0.738	0.76	0.397	0.357	0.357	0.326	0.343	0.485	0.44	0.466	0.477	0.481	0.421	0.473	0.471	0.483	0.461
EKVX	0.383	0.341	0.248		0.299	0.224	0.222	0.229	0.212	0.238	0.45	0.376	0.33		0.397	0.457	0.324	0.432		0.428
NCI-H460	0.288	0.13	0.209	0.195	0.167	0.589	0.537	0.57	0.486	0.542	0.183	0.167	0.21	0.233	0.286	0.0636	0.0622	0.0651	0.0612	0.0633
NCI-H2170	0.94	0.929	0.965	0.883	0.95	0.482	0.433	0.424	0.399	0.398	0.392	0.4	0.399	0.407	0.319	0.284	0.294	0.323	0.267	0.285

Source: the supplement of paper PMC10307832
